Results from patent US6579883B1, “Fluorinated 3,4-dihydroquinoline derivatives used as NOS inhibitors” (Schering Aktiengesellschaft, priority 1998, dated 2003).

Key:
bNOS = bNOS (Homo sapiens, UniProt P29475); assay: bNOS inhibition (method of Bredt and Snyder); type: biochemical; conditions: Proc. Natl. Acad. Sci. USA (1989) 86, 9030-9033
From the text: The NOS-inhibitory action of the compounds of Formula (I) and their physiologically compatible salts can be determined according to the methods by Bredt and Snyder in Proc. Natl. Acad. Sci. USA (1989) 86, 9030-9033.

Row | SMILES | IC50 (bNOS) [nM] | melting point [°C]
1 | NC1=Nc2c(F)cccc2C2CCCC12F (centres unmarked) [Example 2, 4-amino-3a,6-difluoro-2,3,3a,9b-tetrahydro-1H-cyclopenta[c]quinoline] | 590 | 
2 | NC1=Nc2ccc(Br)cc2C2CCCC12F (centres unmarked) [Example 3, 4-Amino-8-bromo-3a-fluoro-2,3,3a,9b-tetrahydro-1H-cyclopenta[c]quinoline] |  | 220
